Test results as given in patent publication US20230001010A1, “COMPOSITIONS AND METHODS FOR TREATING AUTOIMMUNE DISORDERS” (The Regents of the University of Michigan, priority 2019, published 2023).

Tests used:
[1] = tested on: experimental autoimmune encephalomyelitis (EAE); test: Experimental autoimmune encephalomyelitis (EAE) mouse model, pathological score; assay type: in vivo, C57BL/6 mice; details: for time until mice were moribund: treated on days 2, 9 and 16; for average pathological score: treated s.c. on days 2, 9 and 16
Protocol: (§1) HDL nanodisc was prepared as previously described. Briefly, DMPC was dissolved in chloroform, which was evaporated with nitrogen flow and under vacuum for at least 1 h. The resulting lipid film was hydrated in 10 mM sodium phosphate buffer and sonicated in a bath sonicator for 10 min. ApoA1 mimetic peptide 22A dissolved in endotoxin free water was added to the above mixture (22A:DMPC=1:2 weight ratio) to obtain nanodiscs. To load MOG antigen peptide in nanodiscs, each antigen peptide was reacted with 4-(4-maleimidophenyl)-butyric DOPE for 3 h in dimethylformamide (DMF), which was removed by freeze-drying after dilution 10× with endotoxin-free water. The lipid-peptide conjugates were dissolved in DMSO and added to pre-formed sHDL and incubated for 30 min at room temperature. Unreacted MOG peptides were removed by using Zeba Spin Desalting columns (Pierce) following the manufacturer's instructions. The conjugation efficiency of MOG peptide was determined by LC-MS and gel permeation chromatography (GPC). EAE was induced in female C57BL/6 mice by inoculation with 100 μg of MOG in complete Freund's adjuvant on day 0 following the administration of pertussis toxin. Mice were then injected subcutaneously at tail base for therapeutic study with sHDL-MOG, MOG or PBS on indicated days. Mice were weighed and scored daily based on the following guideline: 0, no sign of disease; 1, loss of tone in the tail; 2, hind limb paresis; 3, hind limb paralysis; 4, tetraplegia; and 5, moribund.
EAE-induced mice were administered s.c. with PBS or HDL-MOG on days 15, 22, and 29, and a subset of animals also received i.p. administration of […] to deplete Tregs at the specified time points (FIG. 13).
We examined the therapeutic potential of HDL-FTY720 in the EAE model. EAE was initiated as described above. Briefly, EAE was induced in mice as indicated above. Mice received i.p. administration of PBS or HDL-FTY720 (1 mg/kg) on days 14, 21, and 28. Mice were scored daily and assigned EAE scores as indicated above.

[2] = Antigen / drug loading efficiency in HDL nanodiscs (HPLC/MS); assay type: physicochemical; details: for drug encapsulate efficiencies: drug in HDL nanodiscs, HPLC-MS; for loading efficiency in HDL: antigen / antigen-lipid conjugate loaded into HDL nanodiscs, HPLC/MS
Protocol: as §1
To produce HDL nanodiscs carrying immunomodulatory drugs, 22A, and DMPC were dissolved in acetic acid and freeze-dried overnight as shown above. Drugs (FTY720, ITE, TSA, or SAHA) were dissolved in chloroform and added to lyophilized powder, followed by drying overnight in vacuum oven. Dried samples were rehydrated by 10 mM phosphate buffer. After three heat-cooling cycles, HDL-loaded with drugs were performed. The concentration of each drug was measured by HPLC-MS as shown for FTY720, ITE, TSA, or SAHA (FIGS. 14-17, respectively). Free drugs were used to generate standard curves. […] Samples were also analyzed by dynamic light scattering (DLS) for the particle sizes. […] We also analyzed HDL-FTY720 samples using gel permeation chromatography (GPC) (FIG. 19).
We synthesized HDL nanodiscs loaded with other CD4+ T cell epitopes for validation of our approach. We have synthesized phospholipids conjugated to either Ea chain 52-68 peptide (EA, ASFEAQGALANIAVDKA (SEQ ID NO: 831)), ovalbumin-II 323-339 peptide (OVA-II, ISQAVHAAHAEINEAGR (SEQ ID NO: 832)), and type-II collagen 250-270 peptide (CIA, […] (SEQ ID NO: 833)), each modified with CSS-peptide at N-terminus. Antigen-lipid conjugates were loaded into HDL nanodiscs as described above and analyzed by HPLC/MS and DLS. EA, OVA-II, and CIA peptides were conjugated to MPB-phospholipids with ˜95% conjugation efficiency (FIGS. 22-25). Antigen-lipid conjugates were efficiently loaded into HDL nanodiscs with ˜90%, ˜84%, and ˜78% loading efficiency for EA, OVA-II, and CIA peptides, respectively (FIGS. 22-25).

microglia = test: Cellular uptake by microglia (confocal microscopy); assay type: cell-based, C57BL6/J mice; details: FITC-labelled antigen
Protocol: Mixed glial cell cultures were harvested from the cerebral cortex of newborn (P0-2) C57BL6/J mice as described previously. Cortices and brain stem were separated, and the blood vessels and meninges were carefully isolated. Then, the tissues were digested by enzymatic dissociation (0.05% trypsin-EDTA and […] DNase I), washed two times with 1% BSA in PBS. Cells were resuspended in DMEM (10% FBS, 1% penicillin/streptomycin, 0.5 mM 2-mercaptoethanol). Mixed glial cells were cultured in poly-D-lysine-coated flasks and grown at 37° C. and 5% CO2. After 10 days, microglia cells were isolated from the underlying astrocytic layer by shaking of the flask. The cell culture contained more than 95% microglial (CD11 b+, CD45+) cells as analyzed by flow cytometry.
(§2) Internalization of fluorescent HDL-MOG by BMDCs or microglia were visualized using confocal microscopy. BMDCs or microglia were seeded at 1×10^6 cells on 35 mm Petri dishes (MatTek) and incubated with the mixture of free CSS-MOG-K(FITC), or sHDL-CSS-MOG-K(FITC). Cells were then washed three times with PBS, fixed with 4% paraformaldehyde, washed, and permeabilized with 0.1% Triton-X solution. Actin filaments were stained with AlexaFluor 647-Phalloidin, MHC-II was stained with MHC-II-Texas red, and the nuclei were stained with DAPI. The samples were imaged using a 63× oil-immersion lens on a Nikon A-I spectral confocal microscope.

[3] = tested on: bone marrow-derived dendritic cells (BMDCs); test: Cellular uptake by BMDCs (confocal microscopy); assay type: cell-based, C57BL/6 mice; details: FITC-labelled antigen
Protocol: To obtain bone marrow-derived dendritic cells (BMDCs), bone marrow was flushed from femurs and tibia bone of 5 to 6 weeks old C57BL/6 mice. Bone marrow cells were plated at 1×10^6 cells per dish in RPMI 1640 supplemented with 10% FBS, 55 μM β-mercaptoethanol, 5 ng/ml of GM-CSF, and 100 U/ml penicillin (BMDC media). On day three and five, one half of the culture media was replaced with fresh media. After 8 days, BMDCs were harvested and plated at 1×10^6 cells per well in 12-well plates.
as §2

[4] = Lymph node draining / biodistribution of TMR-labelled antigen after s.c. administration; assay type: in vivo, C57BL/6 mice; details: naive mice, after one day
Protocol: Tetramethylrhodamine (TMR, excitation/emission ˜540/560 nm) modified MOG peptide (CSSGWYRSPFSRVVHL-TMR, MOG-TMR SEQ ID NO: 829) was prepared by reacting TMR-NHS and MOG peptide according to the manufacturer's instruction. MOG-TMR was purified using HPLC and reacted with DOPE-MAL in DMF to produce DOPE-Mal-MOG-TMR (MOG-TMR). Next, the DMF solution was diluted with water, freeze-dried, dissolved in DMSO, and added to previously made HDL to produce HDL-MOG-TMR. Conjugation of MOG-TMR to DOPE-MAL and incorporation of MOG-TMR in HDL were measured by HPLC/MS, as indicated above. For the lymph node draining studies, naive female C57BL/6 mice or EAE-induced mice were administered s.c. at tail base with HDL-MOG-TMR or free MOG-TMR containing antigen peptide (100 μg per mouse) in 100 μl volume. After 24, 96, and 196 hr, animals were euthanized, organs were harvested, and TMR signal was measured with an IVIS optical imaging system (Caliper Life Sciences). Inguinal lymph nodes and spinal cord were cut into small pieces and passed through a 70-μm cell strainer, washed two times, and stained with the indicated antibodies, followed by flow cytometry analysis.

[5] = tested on: CD4+ T cells from CNS cells; test: Intracellular cytokine staining of CD4+ T cells from CNS; assay type: in vivo, C57BL/6 mice; details: day 40
Protocol: (§3) Briefly, female C57BL/6 mice were injected subcutaneously with an emulsion of MOG35-55 ([…], SEQ ID NO: 830) in complete Freund's adjuvant (CFA) and intraperitoneal (i.p.) injection of pertussis toxin (120 ng/dose on days 0 and 2). EAE-induced mice were treated with PBS, free MOG, HDL-MOG, or HDL-M30 (irrelevant CD4+ T cell epitope from B16F10 tumor cells) and CNS tissues were harvested on day 40 (FIG. 10A). CNS tissues were harvested from mice after intracardiac perfusion with PBS. Spinal cord was harvested, homogenized in 10 ml of PBS containing 1% BSA, and pelleted at 800×g for 5 min. Cell pellets were resuspended in 3 ml of collagenase A (1 mg/ml) and DNase I (1 mg/ml) in HBSS and incubated in a 37° C. water bath for 30 min. Samples were pelleted at 800×g, resuspended in 27% Percoll, and centrifuged for 10 min at 800×g. The myelin/debris layer and Percoll were removed, and the cell pellet was stained and analyzed by flow cytometric analysis. Splenic immune cells were isolated by homogenization through a 70 µm strainer (BD Falcon). RBCs were lysed using ACK lysis buffer. Cells were washed with 25 ml of PBS, centrifuged at 800×g, resuspended in FACS buffer, and stained with antibodies. For the cellular surface staining, cells were resuspended in PBS with a fixable viability dye (BV510) for 10 min. Then, cells were washed two times with FACs buffer and resuspended in Fc Block (anti-CD16/32; 100 ng/ml). For ex vivo re-stimulation, cells were incubated for 96 hr with MOG35-55 before brefeldin A (BFA) (5 μg/ml) was added for 4 h. For intracellular staining, cells were stained for surface markers, fixed/permeabilized, and stained with antibody for 30 min on the ice. After 2× washing, cells were resuspended in FACS buffer and analyzed by flow cytometric analysis. Data were collected with a Cytek Aurora flow cytometer using FCS express software (V7).
(§4) On day 40, CNS tissues were isolated and pulsed ex vivo with MOG35-55 peptide, followed by measurement of IL-17, IFN-gamma, and GM-CSF by ELISA (FIG. 10B). […]

[6] = tested on: CD4+ T cells from splenocytes; test: Intracellular cytokine staining of CD4+ T cells from splenocytes; assay type: in vivo, C57BL/6 mice; details: spleen; day 40
Protocol: as §3, §4

Tregs in the CNS = test: Frequency of Tregs in CNS of EAE mice (flow cytometry); assay type: in vivo; details: EAE-induced mice; day 40
Protocol: Cells from CNS were stained by anti-CD25, anti-CD4, and MOG-tetramer, followed by fixation/permeabilization and intracellular staining with anti-Foxp3. Stained cells were then analyzed by flow cytometry. […] On the other hand, mice treated with free MOG peptide or HDL-M30 had basal level of Tregs as in PBS-treated EAE mice (FIGS. 12A-12B).

CNS tissues of EAE mice = test: Cytokine release from CNS cells of treated EAE mice after ex vivo MOG35-55 re-stimulation (ELISA); assay type: in vivo, C57BL/6 mice; details: day 40, pulsed ex vivo with MOG35-55
Protocol: FIG. 6A is a schematic diagram depicting the treatment regimen. FIG. 6B are graphs showing the amount of GM-CSF, IFN-gamma, and IL-17 released after ex vivo treatment of CNS tissues with MOG35-55 peptide.
as §3, with “(V7). […]” for “(V7).”

[7] = harsh EAE induced with MOG1-125

Molecule: CCCCCCCCc1ccc(CCC(N)(CO)CO)cc1 [FTY720, Fingolimod]
- EAE score ([1]; FTY720 0.3 mg/Kg oral daily for 30 days starting day 30): 3
- EAE score ([1]; FTY720 1 mg/Kg oral daily for 30 days starting day 30): 1
- day by which mice had to be euthanized after treatment stopped ([1]; FTY720 oral daily for 30 days starting day 15): ≤ 55 days
- day by which mice had to be euthanized after treatment stopped ([1]; FTY720 oral daily for 30 days starting day 30): ≤ 90 days
- EAE score ([1]; treatment started day 15: HDL-MOG s.c. days 15, 22, 29, followed 85 days, FTY720 oral daily for 30 days): above 2

Molecule: COC(=O)c1csc(C(=O)c2c[nH]c3ccccc23)n1 [ITE, 2-(1′H-indole-3′-carbonyl)-thiazole-4-carboxylic acid methyl ester]
- drug encapsulate efficiencies [2]: ~95%

Molecule: O=C(CCCCCCC(=O)Nc1ccccc1)NO [SAHA, Suberoylanilide hydroxamic acid]
- drug encapsulate efficiencies [2]: ~100%

Molecule: CC(/C=C/C(=O)NO)=C\[C@@H](C)C(=O)c1ccc(N(C)C)cc1 [TSA, Trichostatin A]
- drug encapsulate efficiencies [2]: ~80%

Molecule: ASFEAQGALANIAVDKA [Ea chain 52-68 peptide, modified with CSS-peptide at N-terminus]
- loading efficiency in HDL [2]: ~90%

Molecule: CSS-MOG-K(FITC) [MOG-FITC]
- internalization by microglia (microglia): minimal signal
- internalization by BMDCs [3]: minimal signal

Molecule: CSSGWYRSPFSRVVHL-TMR [MOG-TMR]
- TMR signal in inguinal dLNs [4]: minimal TMR signal

Molecule: GPKGQTGKPGIAGFKGEQGPK [CIA, type-II collagen 250-270 peptide, modified with CSS-peptide at N-terminus]
- loading efficiency in HDL [2]: ~78%

Molecule: ISQAVHAAHAEINEAGR [OVA-II, ovalbumin-II 323-339 peptide, modified with CSS-peptide at N-terminus]
- loading efficiency in HDL [2]: ~84%

Molecule: MEVGWYRSPFSRVVHLYRNGK [free MOG peptide]
- time until mice were moribund [1, 7]: ≤ 20 days
- average pathological score [1, 7]: 5
- time until mice were moribund ([1]; mild EAE induced with MOG35-55): ≤ 20 days
- average pathological score ([1]; mild EAE induced with MOG35-55): 5
- frequency of CD4+ T cells producing GM-CSF [5]: high frequencies
- frequency of CD4+ T cells producing IFN-gamma [5]: high frequencies
- frequency of CD4+ T cells producing IL-17 [5]: high frequencies
- frequency of CD4+ T cells producing GM-CSF [6]: high frequencies
- frequency of CD4+ T cells producing IFN-gamma [6]: high frequencies
- frequency of CD4+ T cells producing IL-17 [6]: high frequencies
- frequency of CD25+Foxp3+ Tregs in the CNS (Tregs in the CNS): basal level
- level of GM-CSF in CNS (CNS tissues of EAE mice): high levels
- level of IFN-gamma in CNS (CNS tissues of EAE mice): high levels
- level of IL-17 in CNS (CNS tissues of EAE mice): high levels
- loading efficiency in HDL [2]: ~90%
